Test results reported in US20110039825A1, “LIGANDS OF ALPHA-ADRENOCEPTORS, DOPAMINE, HISTAMINE, IMIDAZOLINE AND SEROTONIN RECEPTORS AND THEIR USE” (Alla Chem, LLC, priority 2007, published 2011).

Columns and labels:
recombinant human 5-HT1A = target: T1, recombinant human 5-HT1A (Homo sapiens, UniProt P08908); experiment: radioligand binding to serotonin receptor 5-HT1A ([3H] 8-OH-DPAT); settings: 10 μM ligand
T1 construct: expressed in transfected cells; host or cells: CHO
T1 sequence (P08908 1-422): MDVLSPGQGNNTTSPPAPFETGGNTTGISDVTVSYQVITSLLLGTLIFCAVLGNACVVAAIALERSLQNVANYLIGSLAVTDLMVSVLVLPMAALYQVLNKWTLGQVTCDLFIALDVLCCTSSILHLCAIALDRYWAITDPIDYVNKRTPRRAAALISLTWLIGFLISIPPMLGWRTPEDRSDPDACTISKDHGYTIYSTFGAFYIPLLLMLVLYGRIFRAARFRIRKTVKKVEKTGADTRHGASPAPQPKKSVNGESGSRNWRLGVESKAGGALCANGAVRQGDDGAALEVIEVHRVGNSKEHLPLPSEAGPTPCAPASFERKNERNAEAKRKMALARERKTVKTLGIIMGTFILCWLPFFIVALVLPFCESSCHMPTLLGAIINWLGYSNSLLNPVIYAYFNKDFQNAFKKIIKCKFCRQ
Source text: J Pharmacol Exp Ther. 306(1): 301-309, 2003]. […] Metergoline is used as positive control.

[1] = target: T2, serotonin receptor 5-HT1B (Rattus norvegicus, UniProt P28564); experiment: radioligand binding to serotonin receptor 5-HT1B ([125I] cyanopindolol); settings: 10 μM ligand
T2 construct: membrane species are prepared from rat brains (Wistar) by homogenization of species of rat brain-cortices; from tissue; host or cells: rat (Wistar) brain cortex membranes
T2 sequence (P28564 whole entry): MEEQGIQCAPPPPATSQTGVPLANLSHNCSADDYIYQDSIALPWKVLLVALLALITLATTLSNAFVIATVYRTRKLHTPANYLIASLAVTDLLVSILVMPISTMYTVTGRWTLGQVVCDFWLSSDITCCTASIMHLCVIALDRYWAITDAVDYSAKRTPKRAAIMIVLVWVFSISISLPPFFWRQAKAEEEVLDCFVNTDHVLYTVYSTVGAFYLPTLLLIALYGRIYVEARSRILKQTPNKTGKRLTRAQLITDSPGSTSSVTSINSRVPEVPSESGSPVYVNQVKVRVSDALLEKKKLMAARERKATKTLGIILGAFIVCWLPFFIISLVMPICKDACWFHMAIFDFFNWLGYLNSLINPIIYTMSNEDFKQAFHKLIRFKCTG
Protocol: Screening of the disclosed compounds for potential ability to interact with serotonin receptor 5-HT1B is carried out by method of radioligand binding. For this purpose membrane species are prepared from rat brains (Wistar) by homogenization of species of rat brain-cortices in glass homogenizer with the subsequent separation of plasmatic membranes from cell nuclei, mitochondrias and cell wreckages by differential centrifugation. […] After incubation the samples are filtered in vacuo on glass-microfiber filters G/F (Millipor, USA), filters are washed three times with cold solution of medium and radioactivity is measured by scintillation counter MicroBeta 340 (Perkin Elmer, USA). […] Serotonin is used as positive control.
Tested compounds' binding to the receptor is determined by their ability to displace radioligand and expressed in percent of displacement (% I). Values of % I are calculated according to the following equation:
wherein: TA—is overall radioactivity in the presence of radioligand only, CA—is radioactivity in the presence of radioligand and tested compound and NA—is radioactivity in the presence of radioligand and Serotonin (10 μM).

[2] = target: T3, recombinant human 5-HT2B receptor (Homo sapiens, UniProt P41595); experiment: radioligand binding to serotonin receptor 5-HT2B ([3H] Lysergic acid diethylamide); settings: 10 μM ligand
T3 construct: expressed in transfected cells; host or cells: CHO-K1
T3 sequence (P41595 whole entry): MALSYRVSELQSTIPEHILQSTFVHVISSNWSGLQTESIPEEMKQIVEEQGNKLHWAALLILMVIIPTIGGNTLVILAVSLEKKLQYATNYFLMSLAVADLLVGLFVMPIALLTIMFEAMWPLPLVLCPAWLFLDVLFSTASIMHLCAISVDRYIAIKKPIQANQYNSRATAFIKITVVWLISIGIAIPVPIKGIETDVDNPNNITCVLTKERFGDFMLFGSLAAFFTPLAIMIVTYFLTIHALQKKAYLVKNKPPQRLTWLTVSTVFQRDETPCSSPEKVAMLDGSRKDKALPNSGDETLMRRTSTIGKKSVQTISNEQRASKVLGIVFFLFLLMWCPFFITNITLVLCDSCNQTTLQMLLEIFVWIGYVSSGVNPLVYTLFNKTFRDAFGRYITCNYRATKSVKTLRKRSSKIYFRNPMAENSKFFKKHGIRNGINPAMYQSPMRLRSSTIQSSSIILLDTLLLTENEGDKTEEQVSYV

male mice of BALB/c line [3] = experiment: Passive Avoidance of mice in the Shuttle Chamber, memory disturbed by Scopolamine; assay type: in vivo; settings: Scopolamine 0.3 mg/kg
In short: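 Aged male BALB/c mice (20-24 g, ≥8 per group) trained in a light/dark shuttle chamber: entry to dark section punished with 0.6 mA DC for 3 s. Retested 22-24 h later for 5 min, scoring latency to first dark entry, time in light section and number of dark entries; scopolamine used to impair memory.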

male mice of BALB/c line [4] = experiment: Passive Avoidance of mice in the Shuttle Chamber, memory disturbed by MK-801; assay type: in vivo; settings: MK-801 0.1 mg/kg
Protocol: The testing was carried out as in example 14. […] Concurrently, physiological solution of MK-801 in combination with active ingredient 1.9 (1) 1/2NDSA was injected intraintestinally to independent group of mice before training

male mice of BALB/c line [5] = experiment: Mice Behavior in the Elevated Plus Maze; assay type: in vivo; settings: mice BALB/c
Source text: The length of each arm of the maze was 30 cm, width is 5 cm, and height of the walls was 15 cm. Two opposite arms were closed from both sides and end faces by transparent walls, the other two arms were lit and opened. A mouse was placed in the center of the maze and for the next five minutes the number of entries into opened and closed arms and the time spent in each type of arms was registered. […] The animals usually avoided opened arms (the preference index is between 0.2 and 0.3). Compounds with tranquilizing action increased this index up to 0.5-0.6 or even more and reduced the number of defecations without changing the overall motion activity of the mice (the total number of their entries to the arms).

`CN1CCc2c(c3cc(F)ccc3n2CCc2ccccc2)C1.Cl` [1.1.2(1-6)•HCl] gave a 5-HT1A % inhibition (recombinant human 5-HT1A) of 16%, a 5-HT1B % inhibition [1] of 25% and a 5-HT2B % inhibition [2] of 85%.
For `CN1CCc2c(c3ccccc3n2Cc2ccccc2)C1` [1.9(1)·1/2NDSA, bis-(5-benzyl-2-methyl-2,3,4,5-tetrahydro-1H-pyrido[4,3-b]indole) naphthalene-1,5-disulfonate], the “enhancement of memory disturbed by Scopolamine (passive avoidance)” value (male mice of BALB/c line [3]) was “nootropic action”, the “enhancement of memory disturbed by MK-801 (passive avoidance)” value (male mice of BALB/c line [4]) was “act as nootropic” and the “anxiolytic (tranquilizing) action in elevated plus maze” value (male mice of BALB/c line [5]) was “anxiolytic (tranquilizing) action which is comparable with the activity of Buspirone and Lorasepam”.
